Reference: patent US20240099989A1, “AGENT FOR PREVENTING OR IMPROVING PERIPHERAL NEUROPATHY” (KINKI UNIVERSITY, priority 2021, published 2024)
“Also recorded” adds a separate entry of the source. Like-named read-outs stand apart in the source and are kept apart here.

Assays:
[1] = system: Peripheral Neuropathy in a Mouse Caused by Oxaliplatin; assay: Cold plate test (10° C.), peripheral neuropathy caused by oxaliplatin; assay type: in vivo, Balb/c mice
Experimental: The preventive action of xylitol on hyperesthesia that occurs when an anticancer drug, oxaliplatin, was administered was examined. […] Xylitol was orally administered to a mouse simultaneously with the administration of oxaliplatin, and the following tests (cold plate test and von Frey test) were performed. Oxaliplatin is an anticancer drug classified as a platinum-containing drug. In all of the examples described below, a dosage (administered amount) (mg/kg) refers to the weight of the administered substance per kg body weight of the mouse.
Six to seven-week-old female Balb/c mice were used for the tests. All the mice were acclimated for seven days after arrival. Then, the mice were grouped into the following four groups: a control group, a group receiving oxaliplatin, and two groups receiving oxaliplatin and two different doses of xylitol (groups receiving oxaliplatin+xylitol). Each group consisted of nine mice.
(§1) On Day 8 of acclimation, the mice in the group receiving oxaliplatin and the groups receiving oxaliplatin+xylitol were intraperitoneally administered with oxaliplatin at a dose of 6 mg/kg. This day was designated as Day 0 of administration. Thereafter, these mice were intraperitoneally administered with oxaliplatin at a daily dose of 6 mg/kg on Day 7 and Day 14.
The mice in a first group receiving oxaliplatin and xylitol were orally administered with xylitol at a dose of 1 mg/kg daily from Day 0. The mice in a second group receiving oxaliplatin and xylitol were orally administered with xylitol at a dose of 5 mg/kg daily from Day 0.
(§2) A cold plate test was performed to examine the effect of xylitol on paresthesia that is caused by a low temperature stimulus. The mice in the four groups described in (1) of the present example (Example 1) were placed on a cold plate set at 10° C., and withdrawal response time (latent time) was measured. It is presumed that a shorter latent time reflects a greater degree of shunning the low temperature stimulus by the cold plate.
Six to seven-week-old female Balb/c mice were used for the tests as with Example 1. All the mice were acclimated for seven days after arrival. Then, the mice were grouped into the following five groups: a control group, a group receiving only oxaliplatin, and three groups receiving oxaliplatin and three different doses of xylitol. Each group consisted of seven mice.
(§3) On Day 8 of acclimation, the mice in the groups other than the control group were intraperitoneally administered with oxaliplatin at a dose of 6 mg/kg. This day was designated as the first day of the administration (Day 0). Thereafter, these mice were intraperitoneally administered with oxaliplatin at the same dose on Day 7 and Day 14 for a total of 3 doses.
The mice in a first group receiving oxaliplatin+xylitol were orally administered with xylitol at a dose of 5 mg/kg daily from Day 6 of administration. The mice in a second group receiving oxaliplatin+xylitol were orally administered with xylitol at a dose of 25 mg/kg daily from Day 6 of administration. The mice in a third group receiving oxaliplatin+xylitol were orally administered with xylitol at a dose of 100 mg/kg daily from Day 6 of administration. In this context, “Day 6 of administration” means that the number of days after administration is 6. The same applies hereinafter.
as §2, with “A” for “A cold plate”, “performed on the mice in the five groups described in (1) of the present example (Example 2)” for “performed”, “respective” for “the four”, “groups” for “groups described in (1) of the present example (Example 1)”
Six to seven-week-old female Balb/c mice were used for the tests as with Example 1. All the mice were acclimated for seven days after arrival. […]

[2] = system: Peripheral Neuropathy in a Mouse Caused by Vincristine; assay type: in vivo, Balb/c mice
Source text: (§4) Six to seven-week-old female Balb/c mice were used for the tests. All the mice were acclimated for seven days after arrival. Then, the mice were grouped into the following four groups: a control group, a group receiving vincristine, a group receiving xylitol, and a group receiving vincristine and xylitol (a group receiving vincristine+xylitol). Each group consisted of five mice.
as §1, with “vincristine” for “oxaliplatin”, “group” for “groups”, “vincristine+xylitol” for “oxaliplatin+xylitol”, “0.2” for “6”
The mice in the group receiving xylitol and the group receiving vincristine+xylitol were orally administered with xylitol at a dose of 5 mg/kg daily from Day 0.
as §2, with “(7)” for “(1)”
as §4, with “tests as with Example 1.” for “tests.”
as §3, with “group receiving vincristine and” for “groups other than”, “the” for “the control”, “group receiving vincristine+xylitol” for “group”, “vincristine” for “oxaliplatin”, “0.2” for “6”
The mice in the group receiving 100 mg/kg xylitol were orally administered with xylitol at a dose of 100 mg/kg daily from Day 0. The mice in the group receiving vincristine+100 mg/kg xylitol were orally administered with xylitol at a dose of 100 mg/kg daily from Day 6 of administration.
as §2, with “A” for “A cold plate”, “performed on the mice in the four groups described in (9) of the present example (Example 2)” for “performed”, “respective” for “the four”, “groups” for “groups described in (1) of the present example (Example 1)”
as §4, with “tests as with Example 1.” for “tests.”, “D-threitol,” for “xylitol,”, “D-threitol” for “xylitol”, “vincristine+D-threitol).” for “vincristine+xylitol).”
as §1, with “vincristine” for “oxaliplatin”, “group” for “groups”, “vincristine+D-threitol” for “oxaliplatin+xylitol”, “0.2” for “6”
The mice in the group receiving D-threitol and the group receiving vincristine+D-threitol were orally administered with D-threitol at a dose of 5 mg/kg daily from Day 0.
A cold plate test was performed to examine the effect of D-threitol on paresthesia that is caused by a low temperature stimulus. […]

[3] = 6 mg/kg oxaliplatin + 5 mg/kg test substance orally daily from Day 0 (prevention)
[4] = 6 mg/kg oxaliplatin + 100 mg/kg test substance orally daily from Day 6 (therapy), time course after Day 6
[5] = 0.2 mg/kg vincristine + 5 mg/kg test substance orally daily from Day 0 (prevention)
[6] = 0.2 mg/kg vincristine + 100 mg/kg orally daily from Day 6, on Day 12, vs group receiving 0.2 mg/kg vincristine

SMILES	withdrawal response time (latent time) [1, 3]	withdrawal response time (latent time) [1, 4]	withdrawal response time (latent time) [2, 5]	withdrawal response time (latent time) [2, 6]	withdrawal response time (latent time) ([2]; 0.2 mg/kg vincristine + 100 mg/kg orally daily from Day 6 (therapy), time course after Day 6)	withdrawal response time (latent time) ([1]; 6 mg/kg oxaliplatin + 1 mg/kg test substance orally daily from Day 0 (prevention))	withdrawal response time (latent time) ([1]; 6 mg/kg oxaliplatin + 5 mg/kg orally daily from Day 6, on Day 10, vs group receiving 6 mg/kg oxaliplatin)	withdrawal response time (latent time) ([1]; 6 mg/kg oxaliplatin + 5 mg/kg orally daily from Day 6, on Day 14 and Day 17, vs group receiving 6 mg/kg oxaliplatin)	withdrawal response time (latent time) ([1]; 6 mg/kg oxaliplatin + 5 mg/kg orally daily from Day 6, on Day 21, vs group receiving 6 mg/kg oxaliplatin)	withdrawal response time (latent time) ([1]; 6 mg/kg oxaliplatin + 5 mg/kg test substance orally daily from Day 6 (therapy), time course after Day 6)	withdrawal response time (latent time) ([1]; 6 mg/kg oxaliplatin + 25 mg/kg orally daily from Day 6, on Day 10, vs group receiving 6 mg/kg oxaliplatin)	withdrawal response time (latent time) ([1]; 6 mg/kg oxaliplatin + 25 mg/kg test substance orally daily from Day 6 (therapy), time course after Day 6)	withdrawal response time (latent time) ([1]; 6 mg/kg oxaliplatin + 100 mg/kg orally daily from Day 6, on Day 10, vs group receiving 6 mg/kg oxaliplatin)
OC[C@H](O)[C@H](O)[C@H](O)[C@@H](O)CO [L-talitol]	almost the same data; also recorded: approximately similar to that of the control group	tended to become longer from Day 9 onwards; also recorded: significantly longer withdrawal response time	approximately similar to that of the control group	significantly longer withdrawal response time	–	–	–	–	–	–	–	–	–
OC[C@@H](O)[C@H](O)CO [D-threitol]	approximately similar to that of the control group	tended to become longer from Day 6 onwards; also recorded: significantly longer withdrawal response time	approximately similar to that of the control group	significantly longer withdrawal response time	significantly longer withdrawal response time	–	–	–	–	–	–	–	–
OC[C@@H](O)[C@H](O)[C@@H](O)CO [xylitol]	approximately similar to that of the control group	–	approximately similar to that of the control group	significantly longer withdrawal response time	–	approximately similar to that of the control group	significantly longer withdrawal response time	no significant difference	significantly longer withdrawal response time	tended to become longer from Day 6 onwards; also recorded: significantly longer withdrawal response time	significantly longer withdrawal response time	tended to become longer from Day 6 onwards; also recorded: increase in the withdrawal response time; also recorded: significantly longer withdrawal response time	significantly longer withdrawal response time
